These results are taken from ChEMBL document CHEMBL4196231, “Peptidomimetics for Targeting Protein-Protein Interactions between DOT1L and MLL Oncofusion Proteins AF9 and ENL” (ACS Med Chem Lett, 2018).

Square brackets hold non-standard residues; d marks the D form. Peptide text beside a SMILES is read from it. * marks the point of attachment. X2 = CC(C)n1cc(-c2ccccc2)nc1[C@@H]1CCCN1*; X1 = CCn1cc(-c2ccccc2)nc1[C@@H]1CCCN1*; 1Nal = N[C@@H](Cc1cccc2ccccc12)C(=O)O; 2Nal = N[C@@H](Cc1ccc2ccccc2c1)C(=O)O; Ala(cPent) = N[C@@H](CC1CCCC1)C(=O)O; Gly(cPent) = N[C@H](C(=O)O)C1CCCC1; Cha = N[C@@H](CC1CCCCC1)C(=O)O; Chg = N[C@H](C(=O)O)C1CCCCC1; Orn = NCCC[C@H](N)C(=O)O; Dap = NC[C@H](N)C(=O)O

One assay addresses T1, Protein ENL (Homo sapiens, UniProt Q03111).
T1 sequence (Q03111 whole entry): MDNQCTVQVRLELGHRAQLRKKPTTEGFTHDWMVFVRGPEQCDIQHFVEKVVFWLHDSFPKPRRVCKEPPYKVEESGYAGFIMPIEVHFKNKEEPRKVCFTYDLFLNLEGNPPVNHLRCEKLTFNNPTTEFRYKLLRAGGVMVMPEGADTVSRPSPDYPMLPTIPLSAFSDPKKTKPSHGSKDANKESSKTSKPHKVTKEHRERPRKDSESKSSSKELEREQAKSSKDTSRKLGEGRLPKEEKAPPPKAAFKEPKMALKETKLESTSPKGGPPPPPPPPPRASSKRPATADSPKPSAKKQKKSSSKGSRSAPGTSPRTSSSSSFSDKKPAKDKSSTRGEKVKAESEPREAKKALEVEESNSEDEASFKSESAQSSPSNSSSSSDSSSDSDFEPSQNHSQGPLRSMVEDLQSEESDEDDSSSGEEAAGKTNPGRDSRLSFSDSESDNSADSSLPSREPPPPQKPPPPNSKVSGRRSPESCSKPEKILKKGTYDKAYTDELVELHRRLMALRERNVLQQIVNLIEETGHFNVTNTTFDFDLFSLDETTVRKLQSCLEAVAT
As to the kind of experiment: Displacement of N-Flu-DOT1L from MBP-tagged ENL (unknown origin) (489 to 559 residues) expressed in Escherichia coli BL21(DE3) measured after 3 hrs by fluorescence polarization assay.

For the next assay, the target named is T2, Protein AF-9 (Homo sapiens, UniProt P42568).
T2 sequence (P42568 whole entry): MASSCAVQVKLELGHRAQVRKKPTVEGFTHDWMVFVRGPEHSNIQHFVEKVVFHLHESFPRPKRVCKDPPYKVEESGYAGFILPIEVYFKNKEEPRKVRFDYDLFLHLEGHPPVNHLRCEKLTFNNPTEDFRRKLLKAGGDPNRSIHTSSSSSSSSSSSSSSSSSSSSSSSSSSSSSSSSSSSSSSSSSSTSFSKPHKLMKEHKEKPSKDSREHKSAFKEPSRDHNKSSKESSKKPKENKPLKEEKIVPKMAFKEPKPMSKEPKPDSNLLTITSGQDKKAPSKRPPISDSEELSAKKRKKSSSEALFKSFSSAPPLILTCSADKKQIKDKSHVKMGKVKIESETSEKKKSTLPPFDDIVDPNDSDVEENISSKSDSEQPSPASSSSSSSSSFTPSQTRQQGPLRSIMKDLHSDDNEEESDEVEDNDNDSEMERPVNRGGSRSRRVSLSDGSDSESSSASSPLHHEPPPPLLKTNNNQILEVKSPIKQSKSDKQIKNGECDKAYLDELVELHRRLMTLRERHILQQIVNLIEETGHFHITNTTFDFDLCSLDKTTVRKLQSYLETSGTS
Briefly: Displacement of N-Flu-DOT1L from MBP-tagged AF9 (unknown origin) (487 to 568 residues) expressed in Escherichia coli BL21(DE3) measured after 3 hrs by fluorescence polarization assay.

On Protein ENL, `CC[C@H](C)[C@H](NC(=O)[C@H](CO)NC(=O)[C@H](Cc1ccccc1)NC(=O)[C@@H]1CCCN1C(=O)[C@H](CC(C)C)NC(C)=O)C(=O)N1CCC[C@H]1C(=O)N[C@@H](CC(C)C)C(=O)N(C)C` (Ac-LPFSIPL-NMe2) had an IC50 of 177000 nM and a Ki of 62000 nM. At Protein AF-9, this compound displayed an IC50 of 30500 nM and a Ki of 5620 nM.
At Protein ENL, `CC[C@H](C)[C@H](NC(=O)[C@@H]1CCCN1C(=O)[C@H](CC(C)C)NC(C)=O)C(=O)N[C@@H](CO)C(=O)N[C@@H](Cc1ccccc1)C(=O)N1CCC[C@H]1C(=O)N[C@@H](CC(C)C)C(=O)N(C)C` (Ac-LPISFPL-NMe2) had an IC50 of 22700 nM and a Ki of 7730 nM. At Protein AF-9, this compound returned an IC50 of 1660 nM and a Ki of 280 nM.
Turning to `CC[C@H](C)[C@H](NC(=O)[C@@H]1CCCN1C(=O)[C@H](CC(C)C)NC(C)=O)C(=O)N[C@@H](CO)C(=O)N[C@H](C(=O)N1CCC[C@H]1C(=O)N[C@@H](CC(C)C)C(=O)N(C)C)[C@@H](C)CC` (Ac-LPISIPL-NMe2), the IC50 came to 6830 nM at Protein ENL and 1780 nM at Protein AF-9. Also, the Ki amounted to 2150 nM at Protein ENL and 300 nM on Protein AF-9.
The corresponding values for `CC[C@H](C)[C@H](NC(=O)[C@@H]1CCCN1C(=O)[C@H](CC(C)C)NC(C)=O)C(=O)N[C@@H](CO)C(=O)N[C@@H](CC(C)C)C(=O)N1CCC[C@H]1C(=O)N[C@@H](CC(C)C)C(=O)N(C)C` (Ac-LPISLPL-NMe2) are 18600 nM, 4660 nM, 6290 nM and 830 nM.
Taken in the same sequence, the figures for `CC[C@H](C)[C@H](NC(=O)[C@@H]1CCCN1C(=O)[C@H](CC(C)C)NC(C)=O)C(=O)N[C@@H](CO)C(=O)N[C@@H](Cc1c[nH]c2ccccc12)C(=O)N1CCC[C@H]1C(=O)N[C@@H](CC(C)C)C(=O)N(C)C` (Ac-LPISWPL-NMe2) were 7420 nM, 2370 nM, 2350 nM and 410 nM.
The corresponding values for `CC[C@H](C)[C@H](NC(=O)[C@@H]1CCCN1C(=O)[C@H](CC(C)C)NC(C)=O)C(=O)N[C@@H](CO)C(=O)N[C@@H](Cc1cccc2ccccc12)C(=O)N1CCC[C@H]1C(=O)N[C@@H](CC(C)C)C(=O)N(C)C` (Ac-LPIS[1Nal]PL-NMe2) are 57800 nM, 14200 nM, 20100 nM and 2600 nM.
At Protein ENL, `CC[C@H](C)[C@H](NC(=O)[C@@H]1CCCN1C(=O)[C@H](CC(C)C)NC(C)=O)C(=O)N[C@@H](CO)C(=O)N[C@@H](Cc1ccc2ccccc2c1)C(=O)N1CCC[C@H]1C(=O)N[C@@H](CC(C)C)C(=O)N(C)C` (Ac-LPIS[2Nal]PL-NMe2) displayed an IC50 of 42200 nM and a Ki of 14600 nM. On Protein AF-9, this compound gave an IC50 of 4110 nM and a Ki of 730 nM.
The corresponding values for `CC[C@H](C)[C@H](NC(=O)[C@@H]1CCCN1C(=O)[C@H](CC(C)C)NC(C)=O)C(=O)N[C@@H](CO)C(=O)N[C@@H](CC1CCCC1)C(=O)N1CCC[C@H]1C(=O)N[C@@H](CC(C)C)C(=O)N(C)C` (Ac-LPIS[Ala(cPent)]PL-NMe2) are 2170 nM, 510 nM, 850 nM and 130 nM.
The corresponding values for `CC[C@H](C)[C@H](NC(=O)[C@@H]1CCCN1C(=O)[C@H](CC(C)C)NC(C)=O)C(=O)N[C@@H](CO)C(=O)N[C@@H](CC1CCCCC1)C(=O)N1CCC[C@H]1C(=O)N[C@@H](CC(C)C)C(=O)N(C)C` (Ac-LPIS[Cha]PL-NMe2) are 6060 nM, 1880 nM, 1140 nM and 180 nM.
Turning to `CC[C@H](C)[C@H](NC(=O)[C@@H]1CCCN1C(=O)[C@H](CC(C)C)NC(C)=O)C(=O)N[C@@H](CO)C(=O)N[C@H](C(=O)N1CCC[C@H]1C(=O)N[C@@H](CC(C)C)C(=O)N(C)C)C1CCCCC1` (Ac-LPIS[Chg]PL-NMe2), on Protein ENL, the IC50 stood at 10500 nM and the affinity, expressed as Ki, was 3440 nM. In addition, on Protein AF-9, the IC50 was determined as 3490 nM and the affinity, expressed as Ki, was 620 nM.
Taken in the same sequence, the figures for `CC[C@H](C)[C@H](NC(=O)[C@@H]1CCCN1C(=O)[C@H](CC(C)C)NC(C)=O)C(=O)N[C@@H](CO)C(=O)N[C@H](C(=O)N1CCC[C@H]1C(=O)N[C@@H](CC(C)C)C(=O)N(C)C)C1CCCC1` (Ac-LPIS[Gly(cPent)]PL-NMe2) were 4540 nM, 1340 nM, 1490 nM and 250 nM.
Taken in the same sequence, the figures for `CC[C@H](C)[C@H](NC(=O)[C@@H]1CCCN1C(=O)[C@H](CC(C)C)NC(C)=O)C(=O)N[C@@H](CN)C(=O)N[C@H](C(=O)N1CCC[C@H]1C(=O)N[C@@H](CC(C)C)C(=O)N(C)C)[C@@H](C)CC` (Ac-LPI[Dap]IPL-NMe2) were 4250 nM, 1240 nM, 1200 nM and 190 nM.
Taken in the same sequence, the figures for `CC[C@H](C)[C@H](NC(=O)[C@@H]1CCCN1C(=O)[C@H](CC(C)C)NC(C)=O)C(=O)N[C@@H](CN)C(=O)N[C@@H](CC1CCCC1)C(=O)N1CCC[C@H]1C(=O)N[C@@H](CC(C)C)C(=O)N(C)C` (Ac-LPI[Dap][Ala(cPent)]PL-NMe2) were 390 nM, 90 nM, 120 nM and 20 nM.
Turning to `CC[C@H](C)[C@H](NC(=O)[C@@H]1CCCN1C(=O)[C@H](CC(C)C)NC(C)=O)C(=O)N[C@@H](CCCN)C(=O)N[C@H](C(=O)N1CCC[C@H]1C(=O)N[C@@H](CC(C)C)C(=O)N(C)C)[C@@H](C)CC` (Ac-LPI[Orn]IPL-NMe2), the IC50 at Protein ENL was 172000 nM; at Protein AF-9, 24300 nM. The values for the Ki on Protein ENL and on Protein AF-9 were 60200 nM and 4250 nM, respectively.
Consider `CC[C@H](C)[C@H](NC(=O)[C@H](CO)NC(=O)[C@H](CC(C)C)NC(=O)[C@@H]1CCCN1C(=O)[C@H](CC(C)C)NC(C)=O)C(=O)N1CCC[C@H]1C(=O)N[C@@H](CC(C)C)C(=O)N(C)C` (Ac-LPLSIPL-NMe2), for which, on Protein ENL, the IC50 amounted to 43900 nM and the Ki worked out at 15200 nM. In addition, on Protein AF-9, the IC50 amounted to 6400 nM and the Ki came to 1160 nM.
The corresponding values for `CC[C@H](C)[C@H](NC(=O)[C@H](CO)NC(=O)[C@@H](NC(=O)[C@@H]1CCCN1C(=O)[C@H](CC(C)C)NC(C)=O)C(C)C)C(=O)N1CCC[C@H]1C(=O)N[C@@H](CC(C)C)C(=O)N(C)C` (Ac-LPVSIPL-NMe2) are 3600 nM, 1010 nM, 1100 nM and 170 nM.
Taken in the same sequence, the figures for `CCn1cc(-c2ccccc2)nc1[C@@H]1CCCN1C(=O)[C@H](CC1CCCC1)NC(=O)[C@H](CN)NC(=O)[C@@H](NC(=O)[C@@H]1CCCN1C(=O)[C@H](CC(C)C)NC(C)=O)C(C)C` (Ac-LPV[Dap][Ala(cPent)]-X1) were 1570 nM, 369 nM, 341 nM and 50 nM.
The corresponding values for `CC(=O)N[C@@H](CC(C)C)C(=O)N1CCC[C@H]1C(=O)N[C@H](C(=O)N[C@@H](CN)C(=O)N[C@@H](CC1CCCC1)C(=O)N1CCC[C@H]1c1nc(-c2ccccc2)cn1C(C)C)C(C)C` (Ac-LPV[Dap][Ala(cPent)]-X2) are 1220 nM, 287 nM, 369 nM and 57 nM.

The term IC50 denotes the concentration that inhibits the measured activity by half. A high value points to lower potency. The Ki is the dissociation constant of the complex between target and ligand, obtained from inhibition or displacement. Read a low Ki as a stronger hold on the target.
